{"source": "patent US10130651B2", "about": "“RNAi Therapy for Hepatitis B Virus Infection” (Arrowhead Pharmaceuticals, Inc., priority 2015, dated 2018)", "format_in_all_cases": "in vivo, NOD-SCID mice (pHBV model)", "key": {"[1]": {"tested_on": "HBsAg, Hepatitis B Virus", "experiment": "Serum HBsAg in pHBV mice after MLP delivery peptide plus AD01385 and/or AD01386 (Example 10, Tables 17, 18)", "conditions": "3 mg/kg MLP delivery peptide plus […] of each RNAi trigger; for Mean HBsAg in serum: single IV"}, "[2]": {"tested_on": "HBV DNA, Hepatitis B Virus", "experiment": "Serum HBV DNA in pHBV mice after MLP delivery peptide plus AD01385 and/or AD01386 (Example 10, Tables 19, 20)", "conditions": "3 mg/kg MLP delivery peptide plus […] of each RNAi trigger; for Mean HBV DNA in serum: single IV"}, "[3]": {"tested_on": "HBsAg, Hepatitis B Virus", "experiment": "Serum HBsAg in pHBV mice after MLP delivery peptide plus AD01385 and/or AD01386 (Example 10, Tables 17, 18)", "conditions": "3 mg/kg MLP delivery peptide plus […] of each RNAi trigger; for Mean HBsAg in serum: single IV", "method": "At day −28, 6 to 8 week old female NOD.CB17-Prkdscid/NcrCrl (NOD-SCID) mice were transiently transfected in vivo with MC-HBV 1.3 by hydrodynamic tail vein injection as described.\nCDM-NAG was added to MLP, SEQ ID NO: 650 (GIL MLP, L-form), in a 250 mM HEPES-buffered aqueous solution at a 5:1 (w/w) ratio at room temperature and incubated for 30 min to yield MLP delivery peptide. The reaction mixture was adjusted to pH 9.0 with 4 M NaOH. The extent of the reaction was assayed using 2,4,6-trinitrobenzene-sulfonic acid and determined to be >95%. MLP delivery peptide was purified by tangential flow in 10 mM bicarbonate buffer, pH 9.0, to which 10% dextran (w/w) was added. The final purified material was lyophilized.\n5 mg lyophilized MLP delivery peptide was resuspended with 1 mL water. MLP delivery peptide was then combined with HBV RNAi triggers (AD01385 or AD01386) at the various dose levels.\nAt Day 1, each mouse was given a single IV administration via tail vein of 200 μl per 20 gram body weight of saline containing MLP delivery peptide+HBV RNAi triggers.\nAt various time points, before and after administration of MLP delivery peptide+HBV RNAi triggers, serum HBsAg and serum HBV DNA were measured. The HBsAg level in serum for each animal at a time point was divided by the pre-treatment level in that animal in order to determine the ratio of HBsAg in serum “normalized to pre-treatment”. The HBV DNA level in serum for each group at a time point was also divided by the pre-treatment level in that group in order to determine the ratio of HBV DNA in serum “normalized to pre-treatment”. In order to account for non-treatment related decline in expression of MC-HBV 1.3 or pHBV 1.3.—the “normalized to pre-treatment” ratio for an individual animal at a time point was then divided by the average “normalized to pre-treatment” ratio of all mice in the saline control group at the same time point to obtain the ratio of HBsAg, or HBV DNA, in serum “normalized to pre-treatment and control”.\nMice were anesthetized with 2-3% isoflurane and blood samples were collected from the submandibular area into serum separation tubes (Sarstedt AG & Co., Nümbrecht, Germany). Blood was allowed to coagulate at ambient temperature for 20 min. The tubes were centrifuged at 8,000×g for 3 min to separate the serum and stored at 4° C.\nSerum Hepatitis B surface antigen (HBsAg) and Serum HBV DNA levels were measured as described.", "remark": "listed apart in the source"}}}
{"substance": "AD01385: duplex AM02315-AS/AM02319-SS (TEG) (antisense TAUGAUAAAACGCCGCAGATT; sense UAUUCUGCGGCGUUUUAUCAUAT; siRNA; TEG, chemistry not fully specified)", "values": [{"measurement": "Mean HBsAg in serum", "setting": "[1]; day 8", "value": "1905 ± 1232", "unit": "ng/mL"}, {"measurement": "Mean HBsAg in serum", "setting": "[1]; day 15", "value": "2309 ± 1315", "unit": "ng/mL"}, {"measurement": "Mean HBsAg in serum", "setting": "[1]; day 29", "value": "2418 ± 1470", "unit": "ng/mL"}, {"measurement": "Mean HBsAg in serum", "setting": "[1]; day −2 (pre-dose)", "value": "7218 ± 4071", "unit": "ng/mL"}, {"measurement": "HBsAg in serum (mean ± SD) (normalized to pre-dose and saline control group)", "setting": "[1]; day 36", "value": "0.592 ± 0.140"}, {"measurement": "HBsAg in serum (mean ± SD) (normalized to pre-dose and saline control group)", "setting": "[1]; day −2 (pre-dose)", "value": "1.000 ± 0.000"}, {"measurement": "Mean HBV DNA in serum", "setting": "[2]; day 5", "value": "9.84 × 10^6 copies/mL"}, {"measurement": "Mean HBV DNA in serum", "setting": "[2]; day 8", "value": "1.64 × 10^7 copies/mL"}, {"measurement": "Mean HBV DNA in serum", "setting": "[2]; day 15", "value": "7.69 × 10^7 copies/mL"}, {"measurement": "Mean HBV DNA in serum", "setting": "[2]; day 22", "value": "7.60 × 10^7 copies/mL"}, {"measurement": "Mean HBV DNA in serum", "setting": "[2]; day 29", "value": "7.69 × 10^7 copies/mL"}, {"measurement": "Mean HBV DNA in serum", "setting": "[2]; day 36", "value": "6.91 × 10^7 copies/mL"}, {"measurement": "Mean HBV DNA in serum", "setting": "[2]; day −2 (pre-dose)", "value": "2.04 × 10^8 copies/mL"}, {"measurement": "Mean HBV DNA in serum (normalized to pre-dose and saline control group)", "setting": "[2]; day 5", "value": "0.050 ± 0.000"}, {"measurement": "Mean HBV DNA in serum (normalized to pre-dose and saline control group)", "setting": "[2]; day 8", "value": "0.087 ± 0.020"}, {"measurement": "Mean HBV DNA in serum (normalized to pre-dose and saline control group)", "setting": "[2]; day 15", "value": "0.474 ± 0.029"}, {"measurement": "Mean HBV DNA in serum (normalized to pre-dose and saline control group)", "setting": "[2]; day 22", "value": "0.510 ± 0.074"}, {"measurement": "Mean HBV DNA in serum (normalized to pre-dose and saline control group)", "setting": "[2]; day 29", "value": "0.571 ± 0.034"}, {"measurement": "Mean HBV DNA in serum (normalized to pre-dose and saline control group)", "setting": "[2]; day 36", "value": "0.582 ± 0.040"}, {"measurement": "Mean HBV DNA in serum (normalized to pre-dose and saline control group)", "setting": "[2]; day −2 (pre-dose)", "value": "1.000 ± 0.000"}, {"measurement": "Mean HBsAg in serum", "setting": "[3]; day 5", "value": "878 ± 697", "unit": "ng/mL"}, {"measurement": "Mean HBsAg in serum", "setting": "[3]; day 22", "value": "2163 ± 1255", "unit": "ng/mL"}, {"measurement": "Mean HBsAg in serum", "setting": "[3]; day 36", "value": "2067 ± 870", "unit": "ng/mL"}, {"measurement": "HBsAg in serum (mean ± SD) (normalized to pre-dose and saline control group)", "setting": "[3]; day 5", "value": "0.108 ± 0.026"}, {"measurement": "HBsAg in serum (mean ± SD) (normalized to pre-dose and saline control group)", "setting": "[3]; day 8", "value": "0.282 ± 0.030"}, {"measurement": "HBsAg in serum (mean ± SD) (normalized to pre-dose and saline control group)", "setting": "[3]; day 15", "value": "0.665 ± 0.135"}, {"measurement": "HBsAg in serum (mean ± SD) (normalized to pre-dose and saline control group)", "setting": "[3]; day 22", "value": "0.589 ± 0.109"}, {"measurement": "HBsAg in serum (mean ± SD) (normalized to pre-dose and saline control group)", "setting": "[3]; day 29", "value": "0.660 ± 0.175"}]}
